Columns and labels:
Akt = assay: Western immunoblot phospho-Akt in H4IIE cells; assay type: cell-based, rat; conditions: 50 μM, 18 h
Protocol: L6 cells myotubes, H4IIE cells and 3T3-L1 adipocytes were treated with either CAME, CAEE (50 μM each) or vehicle (DMSO) for 18 h. Insulin (100 nM) or aminoimidazole carboxamide ribonucleotide (AICAR; 1 mM) were added to some vehicle-treated wells 30 min prior to the end of the treatment and served as the positives controls. Protein content was assayed by the bicinchoninic acid method (Thermo Scientific Pierce Protein Research, Rockford, IL) standardized to bovine serum albumin. Western immunoblotting was performed as described elsewhere (Eid et al. [2010]). […] Immunoreactive bands were visualized by enhanced chemiluminescence and quantified by the Scion Image program (Scion Corporation, Frederick, MD). […]
Figure 2. […] (A) H4IIE hepatocytes were treated for 16 h with several concentrations (12.5, 25, 50 and100 μM) of either CAME or CAEE and G6Pase activity was determined colorimetrically using a commercial glucose assay kit as described under Materials and Methods. […] (D) Data are expressed as phospho-AMPK/pan-AMPK and are given as mean ± SEM from 3 experiments. *p < 0.05 indicates a significant difference, **(p < 0.01), ***(p < 0.001) from the vehicle control group.

3T3-L1 adipocytes = assay: Adipogenesis assay (AdipoRed lipid accumulation); assay type: cell-based; conditions: Mus musculus, 192 h, 3T3-L1, day 8 of differentiation; for IC50: read-out: adipogenesis inhibition IC50
Protocol: Starting from day 0 of differentiation, 3T3-L1 adipocytes were separately treated with different concentrations of either CAME or CAEE (12.5, 25, 50 and 100 μM). Cells treated with vehicle (0.1% DMSO) in proliferation and differentiation media were used as negative controls. The adipogenic compound rosiglitazone (5 μM) was added to some vehicle-treated wells and served as the positive control. At day 8 after initiation of differentiation, intracellular lipid accumulation was quantified as previously described using AdipoRed Reagent according to the manufacturer’s protocol (Martineau et al. [2010]).
(§1) Figure 3. (A and B) Anti-adipogenic effect of CAME and CAEE in 3T3-L1 adipocytes. Cells were treated with several concentrations (12.5, 25, 50 and100 μM) of either CAME or CAEE in DMEM containing 10% FBS and the standard adipogenic cocktail (500 μM 3-isobutyl-1-methylxanthine, 500 nM insulin and 10 μM dexamethasone) for 2 days then in DMEM containing 10% FBS and 500 nM insulin starting from days 2-8 of differentiation. This medium was changed every 2 days. (A) On day 8, lipid content was measured by AdipoRed assay. Results represent the means ± SEM of three independent experiments. *Indicates a significant (p ≤ 0.05) difference, **(p < 0.01), ***(p < 0.001) from the vehicle control group. […] Vehicle-treated cells show the presence of lipid droplets. On the other hand, cells treated with the maximum nontoxic concentration (100 μM) of either CAME or CAEE retained the fibroblast-like morphology of pre-adipocytes and were devoid of lipid droplets. (C) CAME and CAEE inhibit pre-adipocyte clonal expansion. Confluent 3T3-L1 pre-adipocytes undergoing clonal expansion in response to differentiation cues were treated with vehicle or 12.5, 25, 50 and 100 μM of either CAME or CAEE for 20 h and incorporation of ^3H-labeled thymidine was measured. Normalized data are presented as mean ± SEM of three independent experiments. **Indicates a significant (p ≤ 0.01) difference, ***(p < 0.001) from the vehicle control group.

3T3-L1 pre-adipocytes = assay: Thymidine incorporation assay (mitotic clonal expansion); assay type: cell-based; conditions: Mus musculus, 3T3-L1 cells undergoing mitotic clonal expansion; for IC50: read-out: thymidine incorporation inhibition IC50
Protocol: To assess for the inhibitory activity of CAME and CAEE on and mitotic clonal expansion of 3T3-L1 adipocytes, cells were separately treated with 12.5, 25, 50 and 100 μM of CAME or CAEE for […] in differentiation media and the incorporation of radio-labeled methyl-^3H-thymidine (MP Biomedicals cat #240410, Irvine, CA) into the newly replicated DNA was measured as described elsewhere (Martineau et al. [2010]). The incorporated radioactivity was measured in a liquid scintillation counter (LKB Wallac 1219 Rackbeta; Perkin Elmer Life and Analytical Sciences, Inc., Boston, MA).
as §1

Row | SMILES | phosphorylation of Akt (Akt) | IC50 (3T3-L1 adipocytes) | inhibition at 100 µM (3T3-L1 adipocytes) | IC50 (3T3-L1 pre-adipocytes) | inhibition at 100 µM (3T3-L1 pre-adipocytes)
1 | COC(=O)/C=C/c1ccc(O)c(O)c1 [CAME, CA methyl ester] | did not increase | 13.8 µM | 83.3 ± 7.2% | 39.4 µM | 92.7 ± 2.6%
2 | CCOC(=O)/C=C/c1ccc(O)c(O)c1 [CAEE, caffeic acid ethyl ester] | did not increase | 12.9 µM | 97.3 ± 3% | 13.1 µM | 86.9 ± 3%
